Measured values published in patent publication US7186703B2, “Derivatives of branched-chain lipophilic molecules and uses thereof” (D-Pharm Ltd., priority 2000, dated 2007).
Where “and” joins values, the source holds several entries; their conditions need not be identical. Identical values can stand only once.

Legend:
[1] = system: blood brain barrier (BBB); test: BBB permeability to EB-albumin and Fluorescein in normal rat brains; assay type: in vivo; settings: compounds at EC50 (Mannitol 25%); for % EB/g brain: control 0.04 ± 0.01; for Brain fluorescein uptake (% of serum F-Na level): control 0.3 ± 0.08; for Ratio F-Na/EB (mean of individual ratios): control 9.5 ± 1.6
Text: The effect of various DP-BFAs on BBB permeabilization to molecules of different sizes was examined in vivo in the model system of normal rat brains.
The transport of two markers was followed: a) Evans blue bound to albumin (MW 70 kD) as an indicator for paracellular transport; and b) Fluorescein sodium salt (MW 376 D) that represents small size molecules.
The Evans blue dye (EB) and Fluorescein sodium salt (F—Na) were infused into the artery carotis externa over 30 seconds according to the protocol described above in Example 17. The test compounds were used at their EC50 concentrations. Control animals were treated with vehicle solution.
Evans blue extravasation is expressed as the percentage of the total amount of EB accumulated per one gram of brain tissue. The transport of fluorescein into the brain, which is dependent on the serum concentration of this molecule, is presented as percentage of the F—Na level in the serum.

[2] = system: Neuro2a neuroblastoma cell line; test: MTT cytotoxicity, Neuro2a; assay type: cell-based, mouse; settings: three days, read-out: EC50 (50% reduction in cell viability)
Description: (§1) The cytotoxic activity of various phospho-derivatives of branched-chain fatty acids (DP-BFAs) was assayed in vitro in cell cultures that include normal and malignant cell types. The following cell systems were used: • Primary fibroblasts (human) • Normal bone marrow (BM) cells (mouse) • Primary bronchial epithelial cells (human, from Clonetics, cat. no. CC-2541) • Caco-2—colon cancer cell line (human, ATTC, HTB-37) • C6 glioma cell line (rat, ATCC, CRL-2199) • Neuro2a—neuroblastoma cell line (mouse, ATCC, CCL-131) • SKBR-3—breast cancer cell line (human, ATTC, HTB-30) • HL60—myeloid leukemia cell line (human, ATCC, CCL-240) • U937—myeloid leukemia cell line (human)
(§2) Cells were seeded in a microtiter plate in MEM containing 2 mM L-glutamine, 100 units/ml penicillin, 100 ug/ml streptomycin and 10% FCS at 37° C. The cultured cells were incubated, during their linear growth phase in the absence (control group) or presence of various DP-BFAs as indicated. The final concentrations of the tested DP-BFAs ranged from 1.5 to 200 microMolars. At the end of the incubation period, which was five days for the bone marrow cells and three days for all the other cell lines, the cytotoxic effect of the added P-BFA on the cells was estimated by using the colorimetric MTT assay. The MTT assay (Mosmann (1983) J. Immunol Methods 65: 55–63) measures mitochondrial reductase activity and serves for quantitative assessment of cellular viability. Drug concentration that causes 50% reduction in cell viability in comparison to the control group, is defined as EC50. The EC50 values of the tested DP-BFA compounds were calculated from dose response curves established for each of the different assayed cell lines.
(§3) Each EC50 value is an average of EC50 values derived from 1–5 independent experiments.

[3] = system: Primary bronchial epithelial cells; test: MTT cytotoxicity, normal primary epithelial cells; assay type: cell-based, human; settings: Normal primary epithel, three days, read-out: EC50 (50% reduction in cell viability)
Description: as §1, §2, §3

[4] = system: C6 glioma cell line; test: MTT cytotoxicity, C6 glioma; assay type: cell-based, rat; settings: three days, read-out: EC50 (50% reduction in cell viability)
Description: as §1, §2, §3

[5] = system: Caco-2 colon cancer cell line; test: MTT cytotoxicity, Caco-2; assay type: cell-based, human; settings: Caco-2, three days, read-out: EC50 (50% reduction in cell viability)
Description: as §1, §2, §3

[6] = system: SKBR-3 breast cancer cell line; test: MTT cytotoxicity, SKBR-3; assay type: cell-based, human; settings: three days, read-out: EC50 (50% reduction in cell viability)
Description: as §1, §2, §3

[7] = system: Normal bone marrow (BM) cells; test: MTT cytotoxicity, normal bone marrow cells; assay type: cell-based, mouse; settings: five days, read-out: EC50 (50% reduction in cell viability)
Description: as §1, §2, §3

[8] = system: Primary fibroblasts; test: MTT cytotoxicity, normal primary fibroblasts; assay type: cell-based, human; settings: three days, read-out: EC50 (50% reduction in cell viability)
Description: as §1, §2, §3

[9] = system: blood brain barrier (BBB); test: BBB permeabilization in rats, Evans blue extravasation into brain; assay type: in vivo, Sprague-Dawley rats; settings: Table 6; for μg EB/g brain (at EC50): at EC50 (Mannitol at 25%)
Text: Permeabilization of the BBB by DP-BFA was investigated in rat model system by monitoring accumulation in the brain of two markers: a) Evans blue dye (EB), which rapidly binds in vivo with albumin (NW 70 kD) and is an indicator for paracellular transport; and b) Fluorescein sodium salt (F—Na), MW 376 D, which is transported via the cellular space, and enables monitoring transcellular transport. Upon BBB disruption the Evans blue-albumin complex irreversibly accumulates in the intercellular space of the brain. The much smaller tracer fluorescein may be transported intracellularly to occupy both inter and intracellular space in the brain.
Blood brain barrier permeabilization in Sprague-Dawley rats was induced by brief exposure to DP-BFA. The animals were anesthetized with Rampun-Imalgen and DP-BFA test compounds were administered via the external carotid artery retrograde to the brain (Smith, Q. R. Methods of study. In: Physiology and Pharmacology of the Blood-Brain Barrier. Ed. Bradbury M. W. B. Spinger-Verlag. Berlin-Heidelberg-NY; 1992: 24–52). The pterygo-palathina artery was ligated to avoid escape of infused solutions towards the external head vasculature. DP-BFA solutions were infused over a period of 30 seconds or half an hour, using a Harvard Apparatus Syringe Pump. Blood flow through carotid communis artery was interrupted only at the time of infusion.
All tested DP-BFA molecules were prepared from stock solutions in either water or ethanol by diluting 200–1000 fold into solution of isosmotic mannitol (5%) in Tromethamine buffer (Sigma) or PBS (pH 7.4)
The markers, Evans blue (EB, 25 mg/ml) and fluorescein (F—Na, 12.5 mg/ml), in 1 ml solution, were injected intravenously immediately following administration of the tested DP-BFA, or after a specific time interval if reversibility of action was investigated. Supportive i.v. infusion of F—Na (12.5 mg/ml–100 μl/min) was performed for 8 minutes. Brains were washed with saline solution (60 ml) 10 min after the intracarotid “flash”. Brain ipsilateral and contralateral hemispheres and tumors, where applicable, were homogenized separately with 50% trichloroacetic acid (TCA). The markers concentrations in the cortex and in tumors, where, applicable, were determined spectrofluorometrically (Uyama, O. et al., (1988) J. Cereb. Blood Flow Metab. 8, 282–284: Abraham et al., (1996) Neurosci. Lett. 208, 85–88). The markers content was calculated as μg marker per one-gram brain tissue. Standard error and Student's test for statistical significance were used.
The experiment was carried out on male Sprague-Dawley rats weighing 250–320 g. The procedure described above in Example 17 was followed.
The effect of the tested compounds on the BBB opening was evaluated by two parameters:
a) efficacy—The degree of BBB opening estimated in terms of accumulation of Evans Blue albumin (μg EB/g brain tissue); and
b) potency—measured in terms of EC50 and minimal effective concentration (MEC) values. EC50 is the concentration of a tested compound producing 50% of the maximal effect of Evans Blue extravasation.
The effect of various DP-BFAs on BBB permeability was tested in the model system of rat brains, as described above in Example 17. Efficacy, namely the level of the BBB opening was expressed as the amount of Evans blue accumulated in the brain (μg EB/g brain). Potency of the tested molecules was estimated by their calculated EC50 and minimal effective concentration (MEC) values.

[10] = system: U937 myeloid leukemia cell line; test: MTT cytotoxicity, U937; assay type: cell-based, human; settings: U937, three days, read-out: EC50 (50% reduction in cell viability)
Description: as §1, §2, §3

[11] = system: blood tumor barrier / blood brain barrier; test: Unilateral administration in rats with bilateral C6 gliomas, Evans blue staining of brain sections; assay type: in vivo, SD rats; settings: 10 μM 3,12-DEG-HPO4Na; 40 μM 3,12-Na; 25% mannitol; unilateral infusion
Description: FIGS. 2A–C depict Evans blue accumulation in brain sections of rats bearing bilateral gliomas following unilateral administration of a compound as follows: 10 μM 3,12-DEG-HPO4Na (FIG. 2A), 40 μM 3,12-Na (FIG. 2B) or mannitol 25% (FIG. 2C).
Evans Blue and Fluoroscein penetration into gliomas tumors was examined following unilateral infusion into the external carotis artery of either 10 μM 3,12-DEG-HPO4Na (FIG. 2A), 40 μM 3,12-Na BFA (FIG. 2B) or 25% mannitol (FIG. 2C). The relevant compound was infused into rat brains at 9 to 12 days following inoculation of C6 glioma cells as described in Example 23.

[12] = system: blood tumor barrier (BTB) of C6 glioma; test: BTB opening in C6 glioma-bearing rats, Evans blue accumulation in tumor; assay type: in vivo, Sprague Dawley rats; settings: for Specificity Tumor/Non-tumor (T/NT): ratio of EB accumulated in tumor and non-tumor brain
Description: (§4) In order to study the ability of DP-BFA compounds to modulate blood tumor barrier (BTB), a model system of C6 glioma-bearing rats, was employed.
(§5) Sprague Dawley (SD) rats were inoculated with C6 gliosarcoma cells following the procedure described by Bartus et al. (Exp Neurol (1996); 142:14–28). A small burr-hole was made in the frontal scalp bone of the rat fixed in a stereotaxis apparatus. Using a Hamilton syringe, 10 μl or 5 μl of media, containing 2.5×10^5 C6 gliosarcoma cells were inoculated into the frontal cortex. Coordinates were 1 mm posterior of bregma, 2.5 mm—lateral, and 3 mm—depth. The needle remained in the place for 5 min. After removal of the needle, fascia and scalp were sutured. The rats were checked 6–8 days after inoculation, when tumors of sufficient size (20–60 mg) had developed. The tumor was weighed after F—Na visualization and dissection. Parts of the rats' brains were subject to histological examinations and monitored for Evans Blue and Fluorescein uptake into ipsilateral tumour tissue, peritumoural tissue and contralateral tissue.
(§6) The bilateral tumor model system of C6 glioma-bearing rats described in Example 23 above was employed for screening of various derivatives of DP-BFA for their ability to permeabilize the blood brain barrier (BBB) in comparison to their effect on the blood tumor barrier (BTB). The experimental procedure described in Example 23 was followed except that the tumor-bearing rats were further treated with DP-BFA. The tested compounds, at concentrations around their EC50 values, were unilaterally infused into the external carotis artery over 30 seconds as described in Example 17. Animals treated with vehicle only serve as a control group. Permeabilization effect was quantitated by measuring accumulation of albumin bound Evans blue dye in tumor (T) versus non-tumor (NT) tissues.
(§7) Specificity index is defined as the ratio between the levels of EB accumulated in tumor and those accumulated in non-tumor brain tissues (T/NT).

[13] = system: blood brain barrier (BBB); test: BBB opening in C6 glioma-bearing rats, Evans blue accumulation in non-tumor brain; assay type: in vivo, Sprague Dawley rats; settings: concentrations around EC50 (Mannitol 25%), unilateral 30 s infusion
Description: as §4, §5, §6, §7

| Compound | % EB/g brain [1] [%] | Brain fluorescein uptake (% of serum F-Na level) [1] | Ratio F-Na/EB (mean of individual ratios) [1] | EC50 [2] [µM] | EC50 [3] [µM] | EC50 [4] [µM] | EC50 [5] [µM] | EC50 [6] [µM] | EC50 [7] [µM] | EC50 [8] [µM] | μg EB/g brain (at EC50) [9] | MEC (minimal effective concentration) ([9]; concentration giving 3 μg EB/g brain) [µM] | EC50 ([9]; rat brains, Evans blue extravasation, read-out: EQ50 (the source's name)) [µM] | EC50 [10] [µM] | Ratio F-Na/EB (mean of individual ratios) ([1]; listed as mannitol) | Evans Blue staining of tumor and non-tumor brain (FIG. 2, in words) [11] | BTB EB μg/g Tumor ([12]; concentrations around EC50 (Mannitol 25%), unilateral 30 s infusion) [µg/g] | Specificity Tumor/Non-tumor (T/NT) [12] | Specificity Tumor/Non-tumor (T/NT) ([12]; listed as mannitol) | BBB EB μg/g Non-tumor brain [13] [µg/g] |
| --- | --- | --- | --- | --- | --- | --- | --- | --- | --- | --- | --- | --- | --- | --- | --- | --- | --- | --- | --- | --- |
| CCCCCCCCCCCCC(CCC)OCCOCCOP(=O)([O-])[O-].[Na+].[Na+] (stereo not drawn) [3,12-(ether)-DEG-PO4Na2, 2(4-Hexadecanoxy)ethoxyethyl Disodium Phosphate] | 4 ± 0.8 | 4.4 ± 0.9 % of the F—Na level in the ser | 1.1 and 1.1 ± 0.2 | 37 | > 200 | 40 | 47 | 58 | 68 | 65 | 26 μg EB/g brain and 26 ± 5.2 μg EB/g brain | 7.3 ± 1.4 | 54 ± 5 | 10 | – | – | – | – | – | – |
| OC[C@@H](O)[C@@H](O)[C@H](O)[C@H](O)CO [Mannitol, mannitol, reference compound] | 0.6 ± 0.21 | 2.4 ± 0.4 % of the F—Na level in the ser | 4.0 ± 0.5 | – | – | – | – | – | – | – | 10 ± 2 μg EB/g brain | – | – | – | 4 | equally permeabilized tumor and non-tumor brain tissues | 12 ± 2 | 2.1 ± 0.5 | about twice | 7 ± 2 |
